The source of these data is ChEMBL document CHEMBL1909638, “Amide isosteres in structure-activity studies of antibacterial minor groove binders” (2011).

≈ marks a conversion by molar mass, not a printed value.

Assay [1] deals with Staphylococcus aureus. In words: Antibacterial activity against Staphylococcus aureus by resazurine microtiter assay. Format: functional. (Resazurin is reduced to fluorescent resorufin, in cell work by metabolically active cells.)
The subject of assay [2] is Nucleic Acid. In words: Binding affinity to 5'-GCGATATATGCG-3' DNA sequence in PBS buffer of pH 7.4 assessed as increase in melting temperature by UV-VIS spectrophotometric analysis. In kind it is nucleic-acid assay.
Assay [3] relates to Staphylococcus aureus. In words: Antibacterial activity against Staphylococcus aureus at 200 uM by resazurine microtiter assay. Further details: scale not given here. In kind it is functional.
Assay [4] deals with Mycolicibacterium aurum. Kind of assay: Antimycobacterial activity against Mycobacterium aurum at 37 degC using Mueller-Hinton broth by resazurine microtiter assay. Format: functional.
Assay [5] deals with Nucleic Acid. In words: Binding affinity to 5'-GCGATATATGCG-3' DNA sequence in PBS buffer of pH 7.4 assessed as change in melting temperature by UV-VIS spectrophotometric analysis. Format: nucleic-acid assay.
For assay [6], the system named is Aspergillus niger. In words: Antifungal activity against Aspergillus niger by resazurine microtiter assay. Format: functional.
Assay [7] relates to Candida albicans. In words: Antifungal activity against Candida albicans by resazurine microtiter assay. Format: functional.
For assay [8], the system named is Staphylococcus aureus. Kind of assay: Antibacterial activity against Staphylococcus aureus isolate 1 by resazurine microtiter assay. Format: functional.
In assay [9] the test system is Staphylococcus aureus. Kind of assay: Antibacterial activity against Staphylococcus aureus isolate 2 by resazurine microtiter assay. In kind it is functional.
Assay [10] deals with Enterococcus faecalis. In words: Antibacterial activity against Streptococcus faecalis by resazurine microtiter assay. In kind it is functional.

As for `COc1ccc(/C=C/c2ccc(C(=O)Nc3cc(C(=O)Nc4cc(C(=O)NCCN5CCOCC5)n(C(C)C)c4)n(C)c3)nc2)cc1`, the MIC is 4 µM (≈ 2.56 µg/mL) in assay [1] and 8 µM (≈ 5.12 µg/mL) in assay [4]. In addition, in assay [2], the ΔTm was determined as 16 °C. This compound also returned an Activity in assay [3] of 8.5%.

As to `CCC(C)n1cc(NC(=O)c2cc(NC(=O)c3ccc(/C=C/c4ccc(OC)cc4)cn3)cn2C)cc1C(=O)NCCN1CCOCC1` (stereo not given), the MIC in assay [1] and in assay [4] was 16 µM (≈ 10.5 µg/mL) each time. Further, the ΔTm in assay [2] was 13 °C. For the same compound, in assay [3], the Activity was found to be 2.8%.

For the compound `CN(C)c1ccc(C(=O)Nc2ccc(C(=O)Nc3cc(C(=O)Nc4cc(C(=O)NCCN5CCOCC5)n(C)c4)n(C)c3)cc2)cc1`, the ΔTm in assay [5] amounted to 18 °C.

Turning to `COc1cccc(/N=N/c2ccc(C(=O)Nc3cc(C(=O)Nc4cc(C(=O)NCCN5CCOCC5)n(C)c4)n(C)c3)cc2)c1`, in assay [5], the ΔTm came to 1 °C.

On to `CC(C)n1cc(NC(=O)c2ccc(/C=C/c3cnc4ccccc4c3)cc2)cc1C(=O)Nc1cc(C(=O)NCCN2CCOCC2)n(C)c1`, for which the values for the MIC in assay [1] and in assay [4] were under 1 µM and 2 µM (≈ 1.32 µg/mL), respectively. In addition, the ΔTm in [2] turned out to be 18 °C. This compound also yielded an Activity in assay [3] of 2.3%.

For the compound `COc1ccc(/C=C/c2ccc(C(=O)Nc3cc(C(=O)Nc4cc(C(=O)NCCN5CCOCC5)n(C)c4)n(C(C)C)c3)nc2)cc1`, the minimum inhibitory concentration (MIC) in [1] was 16 µM (≈ 10.2 µg/mL); in assay [4], 8 µM (≈ 5.12 µg/mL). Also, the ΔTm in [2] came to 19 °C. For the same compound, the Activity in [3] turned out to be 6.7%.

In the case of `COc1ccc(/C=C/c2ccc(C(=O)Nc3cc(C(=O)Nc4cc(C(=O)NCCN5CCOCC5)n(C)c4)n(C)c3)nc2)cc1`, in assay [2], the ΔTm worked out at 16 °C.

With `Cn1cc(NC(=O)c2cc(NC(=O)c3ccc(/C=C/c4cnc5ccccc5c4)cc3)cn2C)cc1C(=O)NCCN1CCOCC1` [MGB-BP-3], the MIC in [6] is 50 µM (≈ 31.6 µg/mL); in assay [7], 25 µM (≈ 15.8 µg/mL); in [8] it was 3.1 µM (≈ 1.96 µg/mL); in assay [9] it was 12.5 µM (≈ 7.9 µg/mL); in assay [10] it was 25 µM (≈ 15.8 µg/mL). In addition, the values for the ΔTm in assay [2] and in assay [5] were 19 °C and 18 °C, respectively.

Turning to `COc1cccc(C(=O)Nc2ccc(C(=O)Nc3cc(C(=O)Nc4cc(C(=O)NCCN5CCOCC5)n(C)c4)n(C)c3)cc2)c1`, in assay [5], the ΔTm is 10 °C.

Take `CCC(C)n1cc(NC(=O)c2cc(NC(=O)c3ccc(/C=C/c4cnc5ccccc5c4)cc3)cn2C)cc1C(=O)NCCN1CCOCC1` (stereo not given): the ΔTm in assay [2] was determined as 0 °C. This compound yielded an Activity in [3] of 0.3%.

Take `CC(C)n1cc(NC(=O)c2cc(NC(=O)c3ccc(/C=C/c4cnc5ccccc5c4)cc3)cn2C)cc1C(=O)NCCN1CCOCC1`: the results for the MIC in [1] and in assay [4] were under 1 µM and 2 µM (≈ 1.32 µg/mL), respectively. The shift in melting temperature (ΔTm) in [2] was 10 °C. Besides, the Activity in assay [3] is recorded as 0.8%.

Turning to `Cn1cc(NC(=O)c2cc(NC(=O)c3ccc(NC(=O)c4cnc5ccccc5c4)cc3)cn2C)cc1C(=O)NCCN1CCOCC1`, in assay [5], the ΔTm came to 17 °C.

Consider `CCC(C)n1cc(NC(=O)c2ccc(/C=C/c3cnc4ccccc4c3)cc2)cc1C(=O)Nc1cc(C(=O)NCCN2CCOCC2)n(C)c1` (stereo not given), for which the minimum inhibitory concentration (MIC) in assay [1] was under 1 µM; in assay [4], 2 µM (≈ 1.35 µg/mL). Moreover, the ΔTm in [2] worked out at 15 °C. The compound also displayed an Activity in assay [3] of 2.9%.

`Cn1cc(NC(=O)c2cc(NC(=O)c3ccc(/N=N/c4cnc5ccccc5c4)cc3)cn2C)cc1C(=O)NCCN1CCOCC1`: the MIC in assay [6] was 50 µM (≈ 31.7 µg/mL); in assay [7] it was 25 µM (≈ 15.8 µg/mL); in assay [8], over 100 µM; in [9], over 100 µM; in assay [10], over 100 µM. Also, the ΔTm in assay [5] worked out at 17 °C.

Take `CCC(C)n1cc(NC(=O)c2ccc(/C=C/c3ccc(OC)cc3)cn2)cc1C(=O)Nc1cc(C(=O)NCCN2CCOCC2)n(C)c1` (stereo not given): the MIC in assay [1] was found to be 8 µM (≈ 5.23 µg/mL); in assay [4], 31 µM (≈ 20.3 µg/mL). Further, the ΔTm in assay [2] is 16 °C. Further, the Activity in [3] came to 3.2%.

With `CN(C)c1ccc(/N=N/c2ccc(C(=O)Nc3cc(C(=O)Nc4cc(C(=O)NCCN5CCOCC5)n(C)c4)n(C)c3)cc2)cc1`, in assay [5], the ΔTm was 8 °C.

`CN(C)c1ccc(/C=C/c2ccc(C(=O)Nc3cc(C(=O)Nc4cc(C(=O)NCCN5CCOCC5)n(C)c4)n(C)c3)cc2)cc1`: the minimal inhibitory concentration (MIC) in assay [6] is over 100 µM; in assay [7], 100 µM (≈ 62.4 µg/mL); in assay [8], over 100 µM; in [9], over 100 µM; in [10], over 100 µM. In [5], the ΔTm was 2 °C.

With `COc1cccc(/C=C/c2ccc(C(=O)Nc3cc(C(=O)Nc4cc(C(=O)NCCN5CCOCC5)n(C)c4)n(C)c3)cc2)c1`, the MIC is 50 µM (≈ 30.5 µg/mL) in assay [6]; 100 µM (≈ 61.1 µg/mL) in [7]; 12.5 µM (≈ 7.63 µg/mL) in assay [8]; 25 µM (≈ 15.3 µg/mL) in assay [9]; 6.25 µM (≈ 3.82 µg/mL) in assay [10].

One may read the MIC as the smallest concentration in the dilution series that meets the test's criterion for growth inhibition. As a reminder, the ΔTm is the shift of the melting midpoint relative to a reference.
